US9505834B2, “Methods for controlling the galactosylation profile of recombinantly-expressed proteins” (AbbVie Inc., priority 2011, dated 2016)

Columns and labels:
Type in all cases: cell-based, Chinese Hamster
[1] = system: adalimumab-producing CHO cell line; test: Example 2 culture growth & productivity, HyClone CDM4CHO; conditions: galactose 0 to 40 mM and/or manganese chloride up to 10 μM
Experimental: (§1) For all studies with CHO cell lines described throughout this invention, samples were collected daily and measured for cell density and viability using a Cedex cell counter. Retention samples for titer analysis via Poros A method were collected by centrifugation at 12,000 RPM for 5 min when the culture viability began declining. The cultures were harvested by collecting 125 mL aliquots and centrifuging at 3,000 RPM for 30 min when culture viability was near or below 50%. All supernatants were stored at −80° C. until analysis.
(§2) Growth and production media for the adalimumab-producing CHO cell line were prepared using Thermo Scientific HyClone chemically defined media CDM4CHO without L-glutamine (Catalogue #SH30558.02). […] All media were filtered through Corning 0.5 L or 1 L (0.22 μm PES) filter systems and stored at 4° C. until use.
(§3) Upon thaw, cells were adapted to and expanded in HyClone CDM4CHO media for 5 (2 to 3 day each) passages in a combination of 250 mL, 500 mL, and 1000 mL Corning vented non-baffled shake flasks. Production cultures were initiated in duplicate 500 mL Corning vented non-baffled shake flasks (200 mL working volume) at an initial VCD of approximately 0.5×10^6 cells/mL. Cultures were maintained on orbital shakers at 110 RPM in a dry incubator at 35° C. and 5% CO2. […]

[2] = system: adalimumab-producing CHO cell line; test: Example 2 oligosaccharide analysis, HyClone CDM4CHO, batch shake flasks
Experimental: as §1
(§4) For all studies, the harvest samples were Protein A purified and prepared for the oligosaccharide assay using the following procedures. As a first step in the process of establishing the identity and quantifying the oligosaccharides, they are released from the protein by enzymatic digestion with N-glycanase. Once the glycans are released, the free reducing end of each glycan is labeled by reductive amination with a fluorescent tag, 2-aminobenzamide (2-AB). The resulting labeled glycans are separated by normal-phase HPLC (NP-HPLC) in acetonitrile: 50 mM ammonium formate, pH 4.4, and detected by a fluorescence detector. Quantitation is based on the relative area percent of detected sugars. Throughout this invention, the relative area percentages of the agalactosyl fucosylated biantennary oligosaccharides, denoted as NGA2F+NGA2F-GlcNAc sum, and the galactose-containing fucosylated biantennary oligosaccharides NA1F+NA2F sum are reported and discussed.
as §2
as §3, with “CO2. A glucose solution (1.25% (v/v) of 40% solution) was fed when the media glucose concentration fell below 3 g/L.” for “CO2.”

[3] = system: CHO cell line producing mAb #1; test: Example 7 culture growth & productivity
Experimental: as §1
Growth and production media for the CHO cell line producing mAb #1 were prepared using a proprietary Life Technologies Gibco chemically defined media, GIA-1. […] All media were filtered through Corning 0.5 L or 1 L filter systems (0.22 μm PES) and stored at 4° C. until use.
as §3, with “were” for “were adapted to and”, “expanded” for “expanded in HyClone CDM4CHO media”, “6 (3” for “5 (2 to 3”, “125” for “110”, “CO2. A glucose solution (1.25% (v/v) of 40% solution) was fed when the media glucose concentration fell below 3 g/L.” for “CO2.”

[4] = system: CHO cell line producing mAb #2; test: Example 8 oligosaccharide analysis, CDM GIA-1, fed-batch 3 L bioreactors
Experimental: as §1, §4
Growth and production media for the mAb #2 producing CHO cell line were prepared using the proprietary Life Technologies Gibco chemically defined media, GIA-1.
Upon thaw, cells were expanded in Corning vented non-baffled shake flasks maintained on orbital shakers at 140 RPM, and in 10 L cell bags (2 L working volume) maintained at 25 RPM, 7° angle, 0.25 SLPM airflow in a dry incubator at 36° C. and 5% CO2. Production cultures were initiated in 3 L bioreactors (1.5 L initial working volume) at 36° C., 25% dissolved oxygen, 200 RPM, and pH 7.0. The chemically-defined feed from Life Technologies Gibco JCL-5 was added as follows: 3% (v/v)—day 3, 5%—day 5, 7%—day 7, 10%—day 9, and 10%—day 11. […] Bioreactors were harvested at viability of approximately 70% or below or on production day 15, whichever condition occurred first.
Galactose was supplemented at 0, 15, 30, and 60 mM concentrations in both production and feed media.

[5] = system: adalimumab-producing CHO cell line #3; test: Example 5 oligosaccharide analysis, CDM GIA-1, fed-batch 3 L bioreactors
Experimental: as §1, §4
Growth and production media for the adalimumab-producing CHO cell line #3 were prepared using the proprietary Life Technologies Gibco chemically defined media, GIA-1.
Upon thaw, cells were expanded in Corning vented non-baffled shake flasks maintained on orbital shakers at 140 RPM, and in 10 L cell bags (2 L working volume) maintained at 25 RPM, 7° angle, and 0.25 SLPM airflow in a dry incubator at 36° C. and 5% CO2. Production cultures were initiated in 3 L bioreactors (1.4 L initial working volume) at 36° C., 30% dissolved oxygen, 200 RPM, and pH 6.9±0.2. A fixed split ratio of cells to media of 1:6.7 was utilized to initiate the production stage cultures. A temperature shift was performed when the culture VCD reached a value higher than 5×10^6 cells/mL. The chemically-defined feed from Life Technologies Gibco JCL-5 was added as follows: 4% (v/v)—day 2, 6%—day 4, 8%—day 6, 10%—day 8, and 10%—day 10. […] Bioreactors were harvested at a viability of approximately 50% or on production day 17, whichever condition occurred first.
Galactose was supplemented at 0 and 30 mM concentrations in both production and feed media.

[6] = manganese chloride alone, range 0 to 40 μM
[7] = manganese chloride alone, range 0 to 75 μM
[8] = 0.2 μM manganese chloride alone

Compound: O=C[C@H](O)[C@@H](O)[C@@H](O)[C@H](O)CO [galactose, D(+)Galactose]
- cell growth and viability profiles [1]: comparable to the control cultures
- decrease in the NGA2F+NGA2F-GlcNac sum ([2]; 40 mM galactose alone): 6%
- increase in the NA1F+NA2F sum ([2]; galactose alone up to 40 mM): 6%
- maximum decrease in the NGA2F+NGA2F-GlcNac sum ([2]; galactose alone up to 40 mM): 6%
- culture growth ([3]; galactose alone): grew to a lower maximum VCD compared to the control
- decrease in the NGA2F+NGA2F-GlcNac sum ([4]; 15 mM galactose alone): 7%
- decrease in the NGA2F+NGA2F-GlcNac sum ([4]; 30 mM galactose alone): 12%
- maximum decrease in the NGA2F+NGA2F-GlcNac sum ([4]; galactose alone up to 60 mM): 12%
- maximum increase in the NA1F+NA2F sum ([4]; galactose alone up to 60 mM): 11%
- decrease in the NGA2F+NGA2F-GlcNac sum ([5]; 30 mM galactose alone): 4%
- increase in the NA1F+NA2F sum ([5]; 30 mM galactose alone): 3%

Compound: Manganese (II) Chloride [manganese chloride]
- cell growth and viability profiles [1]: comparable to the control cultures
- decrease in the NGA2F+NGA2F-GlcNac sum ([2]; 40 μM manganese chloride alone): 5%
- maximum decrease in the NGA2F+NGA2F-GlcNac sum [2, 6]: 5%
- maximum increase in the NA1F+NA2F sum [2, 6]: 4%
- culture growth ([3]; manganese chloride alone 0 to 20 μM): grew comparable to the control cultures
- decrease in the NGA2F+NGA2F-GlcNac sum ([4]; 25 μM manganese chloride alone): 10%
- decrease in the NGA2F+NGA2F-GlcNac sum ([4]; 50 μM manganese chloride alone): 18%
- maximum decrease in the NGA2F+NGA2F-GlcNac sum [4, 7]: 18%
- maximum increase in the NA1F+NA2F sum [4, 7]: 16%
- decrease in the NGA2F+NGA2F-GlcNac sum [5, 8]: 15%
- increase in the NA1F+NA2F sum [5, 8]: 16%
- increase in the NA1F+NA2F oligosaccharides ([5]; 1 μM manganese chloride alone): 28%
- maximum decrease in the NGA2F+NGA2F-GlcNac ([5]; 1 μM manganese chloride alone): 26%
